According to BindingDB's records for doi:10.1021/jm00102a002 (Bristol-Myers Squibb, 1993):

How the values were obtained:
[1] = target: Serotonin 2 (5-HT2) receptor (Rattus norvegicus, UniProt P08909+P14842+P30994); assay: ChEBML_1935
Source text: Inhibitory concentration against radioligand [3H]spiperone binding to 5-hydroxytryptamine 2 receptor in rat cortex

D(2) dopamine receptor = D(2) dopamine receptor (Rattus norvegicus, UniProt P61169); assay: ChEBML_61741
Sequence of D(2) dopamine receptor (P61169 whole entry): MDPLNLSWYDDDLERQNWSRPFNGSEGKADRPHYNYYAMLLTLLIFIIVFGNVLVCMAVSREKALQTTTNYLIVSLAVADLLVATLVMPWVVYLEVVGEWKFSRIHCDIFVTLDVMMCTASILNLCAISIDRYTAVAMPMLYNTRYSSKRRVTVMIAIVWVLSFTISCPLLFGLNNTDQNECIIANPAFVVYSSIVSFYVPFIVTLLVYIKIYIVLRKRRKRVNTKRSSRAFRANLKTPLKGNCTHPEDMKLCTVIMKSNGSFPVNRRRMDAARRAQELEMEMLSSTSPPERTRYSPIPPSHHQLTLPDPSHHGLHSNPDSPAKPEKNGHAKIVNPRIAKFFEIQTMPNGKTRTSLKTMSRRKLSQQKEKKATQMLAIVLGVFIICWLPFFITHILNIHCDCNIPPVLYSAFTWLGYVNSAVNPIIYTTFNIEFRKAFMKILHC
Source text: Inhibitory concentration against radioligand [3H]spiperone binding to rat striatal Dopamine receptor D2

Sequence of Serotonin 2 (5-HT2) receptor (P14842 whole entry): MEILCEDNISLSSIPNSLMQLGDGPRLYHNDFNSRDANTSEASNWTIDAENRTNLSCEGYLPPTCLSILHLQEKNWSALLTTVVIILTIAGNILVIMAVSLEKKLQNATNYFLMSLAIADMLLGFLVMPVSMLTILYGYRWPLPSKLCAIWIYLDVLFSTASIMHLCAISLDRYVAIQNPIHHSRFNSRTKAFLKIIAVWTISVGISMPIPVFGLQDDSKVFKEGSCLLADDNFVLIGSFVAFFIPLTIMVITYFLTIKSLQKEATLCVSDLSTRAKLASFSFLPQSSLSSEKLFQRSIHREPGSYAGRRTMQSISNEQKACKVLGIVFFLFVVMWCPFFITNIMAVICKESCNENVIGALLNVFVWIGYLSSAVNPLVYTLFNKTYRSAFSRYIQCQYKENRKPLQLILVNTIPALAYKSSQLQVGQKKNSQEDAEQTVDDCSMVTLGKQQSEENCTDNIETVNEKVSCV
Sequence of Serotonin 2 (5-HT2) receptor (P08909 whole entry): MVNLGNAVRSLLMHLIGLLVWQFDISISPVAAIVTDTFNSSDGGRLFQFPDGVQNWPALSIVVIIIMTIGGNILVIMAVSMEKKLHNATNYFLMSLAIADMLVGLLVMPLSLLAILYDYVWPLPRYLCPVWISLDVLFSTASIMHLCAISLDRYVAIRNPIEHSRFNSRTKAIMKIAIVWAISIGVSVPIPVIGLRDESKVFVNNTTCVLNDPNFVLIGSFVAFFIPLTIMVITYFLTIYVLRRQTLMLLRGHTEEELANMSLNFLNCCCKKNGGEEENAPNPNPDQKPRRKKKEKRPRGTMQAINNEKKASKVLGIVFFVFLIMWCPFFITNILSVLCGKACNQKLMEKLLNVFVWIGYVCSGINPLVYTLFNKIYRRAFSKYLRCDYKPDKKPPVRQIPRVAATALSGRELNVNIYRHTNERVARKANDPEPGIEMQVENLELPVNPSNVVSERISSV
Sequence of Serotonin 2 (5-HT2) receptor (P30994 whole entry): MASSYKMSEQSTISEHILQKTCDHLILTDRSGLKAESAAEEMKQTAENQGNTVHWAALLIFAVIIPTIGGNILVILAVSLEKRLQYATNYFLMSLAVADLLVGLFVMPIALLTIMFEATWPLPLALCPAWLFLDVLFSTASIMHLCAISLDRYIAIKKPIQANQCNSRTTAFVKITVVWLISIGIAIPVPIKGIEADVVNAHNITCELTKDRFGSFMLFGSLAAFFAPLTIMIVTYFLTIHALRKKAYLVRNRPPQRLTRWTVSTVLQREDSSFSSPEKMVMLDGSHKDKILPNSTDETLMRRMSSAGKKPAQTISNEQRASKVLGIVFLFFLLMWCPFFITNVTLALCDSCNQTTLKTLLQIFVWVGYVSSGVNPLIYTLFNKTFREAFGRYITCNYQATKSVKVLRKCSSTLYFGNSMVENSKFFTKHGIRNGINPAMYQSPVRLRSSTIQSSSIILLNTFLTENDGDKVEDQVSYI

IC50 [1]: 1.7 µM
IC50 (D(2) dopamine receptor): 6.43 µM
SMILES: OC(CCCN1CCN(c2ncc(F)cn2)CC1)c1ccc(F)cc1 (configuration not stated) [1-(4-fluorophenyl)-4-(4-(5-fluoropyrimidin-2-yl)piperazin-1-yl)butan-1-ol]
